Source: patent US10526316B2, “Quinoxaline and pyridopyrazine derivatives as PI3Kβ inhibitors” (Janssen Pharmaceutica NV, priority 2015, dated 2020)
pIC50, pKd: −log10 of the molar value. Like-named read-outs stand apart in the source and are kept apart here.

Assays:
[1] = tested on: Akt phosphorylated at Thr308 in PC-3 cells; experiment: Cellular assay: phosphorylation of Akt at Thr308 in PC-3 cells (MSD ELISA); assay type: cell-based; conditions: PC-3 cells, 60 min compound incubation, MSD ELISA, read-out: IC50 pAkt_Thr308
Summary of the method: (§1)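 Electrochemiluminescent sandwich ELISA read-out: phospho-specific capture (Ser473 or Thr308), Sulfo-tag anti-total Akt detection, signal proportional to phospho-Akt. Cells treated 60 min at 37° C with compound, DMSO 0.3%. IC50 fitted from five concentrations.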

kinase enzymes [2] = target: T1, kinase enzymes (Homo sapiens, UniProt P42336); experiment: Enzyme binding assay (KINOMEscan, DiscoveRx), further kinases of Table A; conditions: PIK3Cα_h
T1 construct: purchased DiscoveRx Corporation, San Diego (contract service, KINOMEscan)
T1 sequence (P42336 whole entry): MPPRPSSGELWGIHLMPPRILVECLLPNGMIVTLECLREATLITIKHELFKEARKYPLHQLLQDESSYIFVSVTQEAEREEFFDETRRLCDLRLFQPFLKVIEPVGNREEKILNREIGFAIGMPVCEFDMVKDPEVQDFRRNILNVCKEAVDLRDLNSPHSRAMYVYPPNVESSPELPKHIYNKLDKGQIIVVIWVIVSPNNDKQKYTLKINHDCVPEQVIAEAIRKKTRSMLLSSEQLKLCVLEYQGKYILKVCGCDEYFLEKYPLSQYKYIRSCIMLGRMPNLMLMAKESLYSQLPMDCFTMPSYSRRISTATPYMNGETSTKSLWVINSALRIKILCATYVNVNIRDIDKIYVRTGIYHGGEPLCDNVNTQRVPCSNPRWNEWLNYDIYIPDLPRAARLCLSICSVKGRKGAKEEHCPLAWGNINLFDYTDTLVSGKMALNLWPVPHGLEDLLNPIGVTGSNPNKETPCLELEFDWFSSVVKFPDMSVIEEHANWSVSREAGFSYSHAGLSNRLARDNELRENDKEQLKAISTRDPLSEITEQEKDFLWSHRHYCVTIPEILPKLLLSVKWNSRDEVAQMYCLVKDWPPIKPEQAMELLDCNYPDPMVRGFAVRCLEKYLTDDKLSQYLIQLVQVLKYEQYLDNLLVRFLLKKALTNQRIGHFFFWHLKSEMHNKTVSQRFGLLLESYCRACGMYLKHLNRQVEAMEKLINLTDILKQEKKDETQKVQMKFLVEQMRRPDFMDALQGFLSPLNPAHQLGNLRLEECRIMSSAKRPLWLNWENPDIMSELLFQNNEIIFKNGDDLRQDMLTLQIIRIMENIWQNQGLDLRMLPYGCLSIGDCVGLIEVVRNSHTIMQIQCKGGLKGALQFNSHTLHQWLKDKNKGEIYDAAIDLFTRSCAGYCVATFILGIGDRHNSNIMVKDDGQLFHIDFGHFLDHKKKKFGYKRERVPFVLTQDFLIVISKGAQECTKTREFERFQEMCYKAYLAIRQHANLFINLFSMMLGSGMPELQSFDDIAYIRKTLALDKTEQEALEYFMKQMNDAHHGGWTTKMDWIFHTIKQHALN
Summary of the method: (§2)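 Uses KINOMEscan technology to determine binding affinity toward the kinase enzymes.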

kinase enzymes [3] = target: T2, kinase enzymes (Homo sapiens, UniProt P42345); experiment: as above; conditions: MTOR_h
T2 construct: purchased DiscoveRx Corporation, San Diego (contract service, KINOMEscan)
Summary of the method: as §2

kinase enzymes [4] = target: T3, kinase enzymes (Homo sapiens, UniProt P48736); experiment: as above; conditions: PIK3Cγ_h
T3 construct: purchased DiscoveRx Corporation, San Diego (contract service, KINOMEscan)
T3 sequence (P48736 whole entry): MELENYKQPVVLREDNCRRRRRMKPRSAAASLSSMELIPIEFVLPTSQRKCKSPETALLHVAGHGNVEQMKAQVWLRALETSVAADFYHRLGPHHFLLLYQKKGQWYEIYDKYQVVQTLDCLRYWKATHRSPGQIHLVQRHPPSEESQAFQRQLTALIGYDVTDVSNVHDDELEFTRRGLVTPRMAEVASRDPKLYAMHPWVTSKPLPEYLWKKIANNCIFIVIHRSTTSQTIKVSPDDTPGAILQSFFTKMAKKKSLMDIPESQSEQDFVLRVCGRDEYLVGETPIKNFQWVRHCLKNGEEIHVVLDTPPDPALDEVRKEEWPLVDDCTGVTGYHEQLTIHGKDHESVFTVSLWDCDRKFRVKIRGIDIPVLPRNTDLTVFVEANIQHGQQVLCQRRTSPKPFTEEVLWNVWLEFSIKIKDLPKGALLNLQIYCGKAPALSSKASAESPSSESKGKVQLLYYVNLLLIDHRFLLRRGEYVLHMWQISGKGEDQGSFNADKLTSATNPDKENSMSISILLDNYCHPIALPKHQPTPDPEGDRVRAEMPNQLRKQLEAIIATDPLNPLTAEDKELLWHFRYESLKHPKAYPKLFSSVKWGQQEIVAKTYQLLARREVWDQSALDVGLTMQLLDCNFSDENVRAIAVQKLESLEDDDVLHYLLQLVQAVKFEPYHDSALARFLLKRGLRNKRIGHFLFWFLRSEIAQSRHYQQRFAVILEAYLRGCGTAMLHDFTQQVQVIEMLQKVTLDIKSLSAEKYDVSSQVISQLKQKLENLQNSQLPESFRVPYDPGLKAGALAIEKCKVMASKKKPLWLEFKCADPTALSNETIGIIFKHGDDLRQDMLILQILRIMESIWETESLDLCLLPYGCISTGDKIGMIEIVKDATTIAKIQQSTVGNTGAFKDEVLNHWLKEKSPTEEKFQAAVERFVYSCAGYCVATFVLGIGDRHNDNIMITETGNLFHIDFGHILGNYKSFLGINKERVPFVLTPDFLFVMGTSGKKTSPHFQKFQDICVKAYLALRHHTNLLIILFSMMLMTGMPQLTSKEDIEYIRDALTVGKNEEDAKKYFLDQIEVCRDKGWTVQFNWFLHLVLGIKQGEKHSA
Summary of the method: as §2

[5] = tested on: Akt phosphorylated at Ser473 in PC-3 cells; experiment: Cellular assay: phosphorylation of Akt at Ser473 in PC-3 cells (MSD ELISA); assay type: cell-based; conditions: PC-3 cells, 60 min compound incubation, MSD ELISA, read-out: IC50 pAkt_S473
Summary of the method: as §1

PI3Kβ = target: T4, PI3Kβ (Homo sapiens, UniProt P42338); experiment: Enzyme binding assay (KINOMEscan, DiscoveRx); conditions: PIK3Cβ_h, read-out: Kd PIK3Cβ_h
T4 construct: purchased DiscoveRx Corporation, San Diego (contract service, KINOMEscan)
T4 sequence (P42338 whole entry): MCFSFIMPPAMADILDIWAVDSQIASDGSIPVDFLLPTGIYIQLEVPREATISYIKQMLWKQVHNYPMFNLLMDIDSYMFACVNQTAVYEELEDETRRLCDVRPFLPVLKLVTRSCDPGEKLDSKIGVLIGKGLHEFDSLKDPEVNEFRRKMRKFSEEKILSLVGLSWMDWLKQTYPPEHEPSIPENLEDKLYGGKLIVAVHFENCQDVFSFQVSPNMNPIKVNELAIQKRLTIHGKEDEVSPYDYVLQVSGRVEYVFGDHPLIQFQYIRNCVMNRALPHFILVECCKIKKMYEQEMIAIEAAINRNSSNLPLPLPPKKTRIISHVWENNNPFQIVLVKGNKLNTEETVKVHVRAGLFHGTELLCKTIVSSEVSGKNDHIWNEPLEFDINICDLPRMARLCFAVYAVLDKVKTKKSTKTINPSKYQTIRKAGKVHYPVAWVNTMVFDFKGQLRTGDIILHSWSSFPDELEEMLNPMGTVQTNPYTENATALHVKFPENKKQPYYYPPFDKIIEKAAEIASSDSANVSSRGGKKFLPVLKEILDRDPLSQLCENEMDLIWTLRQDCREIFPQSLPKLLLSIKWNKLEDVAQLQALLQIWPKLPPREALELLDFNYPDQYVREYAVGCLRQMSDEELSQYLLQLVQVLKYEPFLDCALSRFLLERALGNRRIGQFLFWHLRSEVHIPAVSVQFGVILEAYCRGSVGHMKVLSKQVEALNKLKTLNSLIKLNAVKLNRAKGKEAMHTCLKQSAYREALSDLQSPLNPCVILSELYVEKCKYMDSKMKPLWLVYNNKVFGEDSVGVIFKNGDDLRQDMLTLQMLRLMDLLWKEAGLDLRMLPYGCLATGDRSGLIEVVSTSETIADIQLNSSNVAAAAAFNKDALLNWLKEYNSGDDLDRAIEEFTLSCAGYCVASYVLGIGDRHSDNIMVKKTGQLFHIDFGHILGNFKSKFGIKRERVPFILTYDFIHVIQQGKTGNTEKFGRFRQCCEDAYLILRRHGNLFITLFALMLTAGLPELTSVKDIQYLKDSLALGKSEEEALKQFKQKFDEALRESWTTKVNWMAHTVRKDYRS
Summary of the method: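 Using the KINOMEscan format, the enzyme binding affinity of each compound was determined. Each value is the inhibitor binding constant, Kd (nM).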

PI3Kδ = target: T5, PI3Kδ (Homo sapiens, UniProt O00329); experiment: Enzyme binding assay (KINOMEscan, DiscoveRx); conditions: PIK3Cδ_h
T5 construct: purchased DiscoveRx Corporation, San Diego (contract service, KINOMEscan)
T5 sequence (O00329 1-1044): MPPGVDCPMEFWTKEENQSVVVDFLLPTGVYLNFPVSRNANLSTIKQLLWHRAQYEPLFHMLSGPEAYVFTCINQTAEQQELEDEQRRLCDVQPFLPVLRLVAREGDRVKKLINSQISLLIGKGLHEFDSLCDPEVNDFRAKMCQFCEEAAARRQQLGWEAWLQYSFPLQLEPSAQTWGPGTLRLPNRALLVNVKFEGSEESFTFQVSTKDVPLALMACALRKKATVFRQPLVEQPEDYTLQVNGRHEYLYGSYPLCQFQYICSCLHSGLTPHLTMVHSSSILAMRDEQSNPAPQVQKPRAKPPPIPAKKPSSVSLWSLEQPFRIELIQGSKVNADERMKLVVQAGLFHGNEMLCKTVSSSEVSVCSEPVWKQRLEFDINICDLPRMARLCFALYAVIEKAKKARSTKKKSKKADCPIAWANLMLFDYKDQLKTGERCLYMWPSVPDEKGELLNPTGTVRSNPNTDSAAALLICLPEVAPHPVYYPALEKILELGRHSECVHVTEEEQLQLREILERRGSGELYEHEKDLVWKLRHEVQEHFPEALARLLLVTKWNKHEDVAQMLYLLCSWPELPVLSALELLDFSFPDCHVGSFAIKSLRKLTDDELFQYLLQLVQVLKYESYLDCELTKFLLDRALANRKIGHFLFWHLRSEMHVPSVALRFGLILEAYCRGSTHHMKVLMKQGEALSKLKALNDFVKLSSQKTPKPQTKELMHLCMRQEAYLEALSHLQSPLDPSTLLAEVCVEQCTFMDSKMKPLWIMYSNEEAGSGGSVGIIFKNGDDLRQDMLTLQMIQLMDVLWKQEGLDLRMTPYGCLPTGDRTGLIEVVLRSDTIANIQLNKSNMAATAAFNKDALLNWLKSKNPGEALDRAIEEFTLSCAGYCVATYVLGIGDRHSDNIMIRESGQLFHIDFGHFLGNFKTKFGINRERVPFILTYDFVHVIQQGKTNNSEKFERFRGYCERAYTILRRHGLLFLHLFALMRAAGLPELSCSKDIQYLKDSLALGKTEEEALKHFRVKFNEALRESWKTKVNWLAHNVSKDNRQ
Summary of the method: as §2

| Structure (SMILES) | pIC50 ([1]; Homo sapiens, PC-3, 1 h) | pKd (kinase enzymes [2]) | pKd (kinase enzymes [3]) | pKd (kinase enzymes [4]) | melting point [°C] | pIC50 ([5]; Homo sapiens, PC-3, 1 h) | pKd (PI3Kβ) | pKd (PI3Kδ) | pIC50 [1] | pIC50 [5] |
| --- | --- | --- | --- | --- | --- | --- | --- | --- | --- | --- |
| O=C(c1cc(C2CCCN2c2cc(F)cc(F)c2)c2nc(N3CCOCC3)cnc2c1)N1CCC1 (single isomer, unassigned) [Compound 37] | – | 5.21 | < 4.52 | < 4.52 | 276 | – | 7.70 | 5.54 | 6.90 | 6.70 |
| CC(Nc1cc(F)cc(F)c1)c1cc(C(=O)N(C)C)cc2ncc(N3CCOCC3)nc12 (single isomer, unassigned) [Compound 13] | – | 4.62 | < 4.52 | < 4.52 | 217 | – | 6.74 | 5.23 | < 6.29 | < 6.29 |
| CC(Nc1cc(F)cc(F)c1)c1cc(C(=O)N2CCN(C)CC2)cc2ncc(N3CCOCC3)nc12 (stereo not shown) [Compound 144] | 7.55 | 5.76 | < 4.52 | 5.25 | 80 | 7.23 | 8.70 | 6.36 | – | – |
| Cc1c(F)cccc1CNc1cc(C(=O)NCCN(C)C)cc2ncc(N3CCOCC3)nc12 [Compound 383] | 8.22 | 5.91 | 5.15 | 5.10 | 172 | 7.64 | 9.00 | 6.63 | – | – |
| CC(Nc1cccc(Br)c1)c1cc(C(=O)N2CCOCC2)cc2ncc(N3CCOCC3)nc12 (stereo not shown) [Compound 124] | 7.03 | 5.97 | 5.09 | 5.11 | 80 | 6.82 | 8.40 | 6.24 | – | – |
| O=C(c1cc(C2CCCN2c2cc(F)cc(F)c2)c2nc(N3CCOCC3)cnc2c1)N1CCS(=O)(=O)CC1 (single isomer, unassigned) [Compound 43] | – | 5.33 | < 4.52 | 5.96 | 80 | – | 6.50 | 5.14 | 6.48 | < 6.29 |
| CC(Nc1ccc(F)c(F)c1)c1cc(C(=O)N(C)C2CCNC2)cc2ncc(N3CCOCC3)nc12 (stereo not shown) [Compound 323b] | – | 5.42 | < 4.52 | 5.51 | 130 | – | 9.00 | 6.74 | 7.00 | 6.68 |
| CN(C)C(=O)c1cc(N2CCCC2c2cc(F)cc(F)c2)c2nc(N3CCOCC3)cnc2c1 (single isomer, unassigned) [Compound 395b] | – | 5.40 | 4.73 | 4.49 | 102 | – | 6.20 | 5.45 | < 6.29 | < 6.29 |
| CN(C)C(=O)c1cc(N2CCC2c2ccc(F)cc2)c2nc(N3CCOCC3)cnc2c1 (stereo not shown) [Compound 397] | < 6.29 | 5.57 | < 4.52 | 4.64 | 70 | < 6.29 | 7.44 | 6.18 | – | – |
| CN(C)C(=O)c1cc(C2CCCN2c2cccc(C(F)(F)F)c2)c2nc(N3CCOCC3)cnc2c1 (stereo not shown) [Compound 52] | 6.62 | 5.21 | < 4.52 | 4.86 | 80 | < 6.29 | 7.42 | 5.31 | – | – |
| CC(Nc1cccc(F)c1)c1cc(C(=O)N2CCC[C@H](O)C2)cc2ncc(N3CCOCC3)nc12 (single isomer, unassigned) [Compound 320a] | 7.77 | 6.29 | < 4.52 | 5.35 | 110 | 7.70 | 8.70 | 6.74 | – | – |

Stronger by pKd (kinase enzymes [2]), values ahead:

| pIC50 ([1]; Homo sapiens, PC-3, 1 h) | pKd (kinase enzymes [2]) | pKd (kinase enzymes [3]) | pKd (kinase enzymes [4]) | melting point [°C] | pIC50 ([5]; Homo sapiens, PC-3, 1 h) | pKd (PI3Kβ) | pKd (PI3Kδ) | pIC50 [1] | pIC50 [5] | Structure (SMILES) |
| --- | --- | --- | --- | --- | --- | --- | --- | --- | --- | --- |
| 9.00 | 7.25 | 4.69 | 6.69 | 80 | 8.70 | 9.70 | 7.77 | – | – | CNCCNC(=O)c1cc(C2CCCN2c2cc(F)cc(F)c2)c2nc(N3CCOCC3)cnc2c1 (stereo not shown) [Compound 72] |
| < 6.29 | 6.32 | 5.65 | 6.36 | 240 | < 6.29 | 7.33 | 6.02 | – | – | CC(c1cc(C(=O)O)cc2ncc(N3CCOCC3)nc12)N(C)c1cccc(F)c1 (stereo not shown) [Compound 98] |
| ~7.57 | 6.79 | < 4.52 | 5.72 | 80 | ~7.41 | 8.70 | 6.82 | – | – | Cc1cc(F)cc(N2CCCC2c2cc(C(=O)N(C)C)cc3ncc(N4CCOCC4)nc23)c1 (stereo not shown) [Compound 35] |
| 8.70 | 7.42 | 4.97 | 6.70 | 80 | 8.22 | 9.00 | 7.77 | – | – | O=C(c1cc(C2CCCN2c2cc(F)cc(F)c2)c2nc(N3CCOCC3)cnc2c1)N1CC(O)C1 (stereo not shown) [Compound 65] |
| 7.96 | 6.76 | < 5.00 | 6.64 | 140 | 7.51 | 9.70 | 7.44 | – | – | OCCNCc1cc(C2CCCN2c2cc(F)cc(F)c2)c2nc(N3CCOCC3)cnc2c1 (stereo not shown) [Compound 14] |
| – | 7.24 | < 4.52 | 6.41 | 280 | – | 9.00 | 7.33 | 8.40 | 8.52 | O=C(c1cc(C2CCCN2c2cc(F)cc(F)c2)c2nc(N3CCOCC3)cnc2c1)N1CCC1 (single isomer, unassigned) [Compound 33] |
